According to patent US20240368181A1, “QUINOXALINE DERIVATIVES AND USES THEREOF” (Black Diamond Therapeutics, Inc., priority 2021, published 2024):

Key:
Assay type in all cases: cell-based
[1] = system: RT-112 (FGFR3-Tacc3 fusion) cells; test: cell proliferation assay (CellTiterGlo), RT-112 cells; conditions: 72 hours
Summary of the method: (§1)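 Luminescent ATP read-out (CellTiterGlo) after exposure to compound at varying concentrations or DMSO vehicle. IC50 derived with vehicle-treated wells set as viable cells.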

[2] = system: SNU-16 (FGFR2-amplification) cells; test: cell proliferation assay (CellTiterGlo), SNU-16 cells; conditions: 72 hours
Summary of the method: as §1

[3] = system: UM-UC-14 (FGFR3-S249C) cells; test: cell proliferation assay (CellTiterGlo), UM-UC-14 cells
Summary of the method: as §1

[4] = system: DMS-114 (FGFR1 overexpression) cells; test: cell proliferation assay (CellTiterGlo), DMS-114 cells
Summary of the method: as §1

[5] = Homo sapiens, RT-112, RT112 cells

SMILES	IC50 ([2]; Homo sapiens)	IC50 [2]	IC50 [1, 5]	IC50 ([3]; UMUC14, 72 h)	IC50 ([4]; Homo sapiens, DMS-114, 72 h)	IC50 ([1]; RT112 cells)	IC50 ([3]; 72 hours)	IC50 ([4]; 72 hours)
Cc1nc2ccc(Oc3ccc4ncc(-c5cnn(CC6CC(=O)C6)c5)nc4c3Cl)cc2[nH]1 [Compound 308]	20 to 100 nM		20 to 100 nM	20 to 100 nM	≥ 400 nM			
Cc1nc2ccc(Oc3ccc4ncc(-c5cnn(CC6CC(F)(F)C6)c5)nc4c3C3CC3)cc2[nH]1 [Compound 216]	100 to 400 nM		100 to 400 nM	100 to 400 nM	≥ 400 nM			
Cc1nc2ccc(Oc3ccc4ncc(-c5cnn(CCNCCO)c5)nc4c3Cl)cc2[nH]1 [Compound 350]	100 to 400 nM		20 to 100 nM	100 to 400 nM	≥ 400 nM			
Cc1nc2ccc(Oc3ccc4ncc(-c5cnn(CC6CC7CC6CN7C(N)=O)c5)nc4c3Cl)cc2[nH]1 (centres unmarked) [Compound 328]	20 to 100 nM		20 to 100 nM	20 to 100 nM	≥ 400 nM			
Cc1nc2ccc(Oc3ccc4ncc(-c5cnn(CC6CN(CC(=O)N7CC(O)C7)C6)c5)nc4c3Cl)cc2[nH]1 [Compound 314]	20 to 100 nM		20 to 100 nM	100 to 400 nM	100 to 400 nM			
Cc1nc2ccc(Oc3ccc4ncc(-c5cnn(CCO)c5)nc4c3Cl)c(F)c2[nH]1 [Compound 268]	20 to 100 nM		20 to 100 nM	20 to 100 nM	≥ 400 nM			
Cc1nc2ccc(Oc3ccc4ncc(-c5cnn([C@@H]6C[C@H]7CC[C@@H](C6)N7)c5)nc4c3Cl)cc2[nH]1 [Compound 361]	100 to 400 nM		20 to 100 nM	20 to 100 nM	100 to 400 nM			
CCC(=O)N1CCC(CCn2cc(-c3cnc4ccc(Oc5ccc6nc(C)[nH]c6c5)c(Cl)c4n3)cn2)CC1 [Compound 300]	20 to 100 nM		20 to 100 nM	< 20 nM	≥ 400 nM			
Cc1nc2ccc(Oc3ccc4ncc(-c5cnn(CCC6C=CCO6)c5)nc4c3Cl)cc2[nH]1 (centres unmarked) [Compound 376]	20 to 100 nM		20 to 100 nM	20 to 100 nM	≥ 400 nM			
Cc1nc2ccc(Oc3ccc4ncc(-c5cnn(C(C)(C)C6CC(F)(F)C6)c5)nc4c3Cl)cc2[nH]1 [Compound 147]	100 to 400 nM		20 to 100 nM	100 to 400 nM	≥ 400 nM			
Cc1nc2ccc(Oc3ccc4ncc(-c5cnn(CC6CCC(=O)CC6)c5)nc4c3Cl)cc2[nH]1 [Compound 327]	< 20 nM		< 20 nM	< 20 nM	≥ 400 nM			
Cc1nc2ccc(Oc3ccc4ncc(-c5cnn([C@H]6CC7(C[C@@H](O)C7)C6)c5)nc4c3Cl)cc2[nH]1 (some centres unmarked) [Compound 124]		20 to 100 nM				20 to 100 nM	20 to 100 nM	≥ 400 nM
Cc1nc2ccc(Oc3ccc4ncc(-c5cnn(CC6(C)COC6)c5)nc4c3Cl)cc2[nH]1 [Compound 352]	≥ 400 nM		≥ 400 nM	≥ 400 nM	≥ 400 nM			
CCc1nc2cc(Oc3ccc4ncc(-c5cnn(CC6CC(F)(F)C6)c5)nc4c3Cl)ccc2[nH]1 [Compound 219]	100 to 400 nM		100 to 400 nM	100 to 400 nM	≥ 400 nM			
Cc1nc2ccc(Oc3ccc4ncc(-c5cnn(C6C7CCC6CNC7)c5)nc4c3Cl)cc2[nH]1 (centres unmarked) [Compound 223]	20 to 100 nM		20 to 100 nM	20 to 100 nM	100 to 400 nM			
Cc1nc2ccc(Oc3ccc4ncc(-c5cnn(CC6(O)CCC6)c5)nc4c3Cl)c(F)c2[nH]1 [Compound 140]	20 to 100 nM		20 to 100 nM	20 to 100 nM	≥ 400 nM			
Cc1nc2ccc(Oc3ccc4ncc(-c5cnn(C6CC(F)(F)C6)c5)nc4c3Cl)cc2[nH]1 [Compound 205]	100 to 400 nM		100 to 400 nM	100 to 400 nM	≥ 400 nM			
Cc1nc2ccc(Oc3ccc4ncc(-c5cnn(C6CN(C7CCOCC7)C6)c5)nc4c3Cl)cc2[nH]1 [Compound 238]	20 to 100 nM		20 to 100 nM	20 to 100 nM	100 to 400 nM			
Cc1nc2ccc(Oc3ccc4ncc(-c5cnn([C@H]6C[C@](C)(O)C6)c5)nc4c3Cl)c(F)c2[nH]1 [Compound 149]	< 20 nM		< 20 nM	< 20 nM	100 to 400 nM			
Cc1nc2ccc(Oc3ccc4ncc(-c5cnn(CC6CN(CC#N)C6)c5)nc4c3Cl)cc2[nH]1 [Compound 310]	20 to 100 nM		20 to 100 nM	20 to 100 nM	≥ 400 nM			
Cc1nc2ccc(Oc3ccc4ncc(-c5cnn(C6CN(CC(F)F)C6)c5)nc4c3Cl)cc2[nH]1 [Compound 221]	20 to 100 nM		20 to 100 nM	20 to 100 nM	≥ 400 nM			
Cc1nc2ccc(Oc3ccc4ncc(-c5cnn(CC(N)=O)c5)nc4c3Cl)cc2[nH]1 [Compound 326]	20 to 100 nM		100 to 400 nM	100 to 400 nM	≥ 400 nM			

Further lines, with some results ahead:

IC50 ([2]; Homo sapiens)	IC50 [2]	SMILES	IC50 [1, 5]	IC50 ([3]; UMUC14, 72 h)	IC50 ([4]; Homo sapiens, DMS-114, 72 h)	IC50 ([1]; RT112 cells)	IC50 ([3]; 72 hours)	IC50 ([4]; 72 hours)
20 to 100 nM		Cc1nc2ccc(Oc3ccc4ncc(-c5cnn(CC6CC7CC6CO7)c5)nc4c3Cl)cc2[nH]1 (centres unmarked) [Compound 241]	< 20 nM	20 to 100 nM	100 to 400 nM			
20 to 100 nM		Cc1nc2ccc(Oc3ccc4ncc(-c5cnn(Cc6ncc7n6CCOC7)c5)nc4c3Cl)c(F)c2[nH]1 [Compound 145]	100 to 400 nM	≥ 400 nM	≥ 400 nM			
20 to 100 nM		CNC(=O)N1CC2CC1CC2Cn1cc(-c2cnc3ccc(Oc4ccc5nc(C)[nH]c5c4)c(Cl)c3n2)cn1 (centres unmarked) [Compound 313]	20 to 100 nM	20 to 100 nM	≥ 400 nM			
< 20 nM		Cc1nc2ccc(Oc3ccc4ncc(-c5cnn(CC6CC(F)(F)C6)c5)nc4c3C3=CCOC3)c(F)c2[nH]1 [Compound 89]	20 to 100 nM	20 to 100 nM	100 to 400 nM			
≥ 400 nM		Cc1nc2ccc(Oc3ccc4ncc(-c5cnn(C6CCC(F)(F)CC6)c5)nc4c3Cl)cc2o1 [Compound 186]	≥ 400 nM	≥ 400 nM	≥ 400 nM			
100 to 400 nM		Cc1nc2ccc(Oc3ccc4ncc(-c5cnn(CCC6CCNCC6)c5)nc4c3Cl)cc2[nH]1 [Compound 304]	20 to 100 nM	20 to 100 nM	≥ 400 nM			
20 to 100 nM		Cc1nc2ccc(Oc3ccc4ncc(-c5cnn([C@H]6CCN(C7COC7)C[C@@H]6F)c5)nc4c3C)cc2[nH]1 [Compound 212]	20 to 100 nM	20 to 100 nM	100 to 400 nM			
< 20 nM		Cc1nc2ccc(Oc3ccc4ncc(-c5cnn(CC6CC(F)(F)C6)c5)nc4c3-c3ccoc3)c(F)c2[nH]1 [Compound 81]	< 20 nM	< 20 nM	100 to 400 nM			
20 to 100 nM		Cc1nc2ccc(Oc3ccc4ncc(-c5cnn([C@H]6C[C@H](N7CCOCC7)C6)c5)nc4c3Cl)cc2[nH]1 [Compound 324]	20 to 100 nM	20 to 100 nM	≥ 400 nM			
< 20 nM		COC(=O)C(C)(C)n1cc(-c2cnc3ccc(Oc4ccc5nc(C)[nH]c5c4F)c(Cl)c3n2)cn1 [Compound 112]	20 to 100 nM	< 20 nM	100 to 400 nM			
20 to 100 nM		Cc1nc2ccc(Oc3ccc4ncc(-c5cnn(CC(=O)N6CC(O)C6)c5)nc4c3Cl)cc2[nH]1 [Compound 317]	100 to 400 nM	≥ 400 nM	≥ 400 nM			
20 to 100 nM		Cc1nc2ccc(Oc3ccc4ncc(-c5cnn(CCN6C[C@@H]7C[C@H]6CO7)c5)nc4c3Cl)cc2[nH]1 [Compound 225]	20 to 100 nM	20 to 100 nM	≥ 400 nM			
20 to 100 nM		Cc1nc2ccc(Oc3ccc4ncc(-c5cn(C6CCNCC6)nc5C)nc4c3Cl)cc2[nH]1 [Compound 264]	20 to 100 nM	20 to 100 nM	100 to 400 nM			
< 20 nM		Cc1nc2ccc(Oc3ccc4ncc(-c5cnn(CCC6CCS(=O)(=O)C6)c5)nc4c3Br)cc2[nH]1 (centres unmarked) [Compound 278]	< 20 nM	< 20 nM	≥ 400 nM			
20 to 100 nM		Cc1nc2ccc(Oc3ccc4ncc(-c5cnn([C@H]6C[C@@H](N7C[C@@H]8C[C@H]7CO8)C6)c5)nc4c3Cl)cc2[nH]1 [Compound 204]	20 to 100 nM	20 to 100 nM	≥ 400 nM			
< 20 nM		Cc1nc2ccc(Oc3ccc4ncc(-c5cnn([C@H](C)CO)c5)nc4c3Cl)c(F)c2[nH]1 [Compound 107]	< 20 nM	< 20 nM	100 to 400 nM			
20 to 100 nM		Cc1nc2ccc(Oc3ccc4ncc(-c5cnn(C6CN(CC7(F)CC7)C6)c5)nc4c3Cl)cc2[nH]1 [Compound 220]	20 to 100 nM	20 to 100 nM	≥ 400 nM			
20 to 100 nM		CNC(=O)CN1CCC(n2cc(-c3cnc4ccc(Oc5ccc6nc(C)[nH]c6c5)c(Cl)c4n3)cn2)CC1 [Compound 322]	< 20 nM	20 to 100 nM	≥ 400 nM			
100 to 400 nM		Cc1nc2ccc(Oc3ccc4ncc(-c5cnn(CC6CC(F)(F)C6)c5)nc4c3C3=CCNC3)cc2[nH]1 [Compound 83]	100 to 400 nM	20 to 100 nM	≥ 400 nM			
100 to 400 nM		Cc1nc2ccc(Oc3ccc4ncc(-c5cnn(C6CC(N7CCC7)C6)c5)nc4c3Cl)cc2[nH]1 (centres unmarked) [Compound 244]	20 to 100 nM	20 to 100 nM	≥ 400 nM			
20 to 100 nM		Cc1nc2ccc(Oc3ccc4ncc(-c5cnn(CCN6CCCC6=O)c5)nc4c3Cl)cc2[nH]1 [Compound 215]	20 to 100 nM	20 to 100 nM	≥ 400 nM			
20 to 100 nM		Cc1nc2ccc(Oc3ccc4ncc(-c5cnn(CC(=O)N6CCC6)c5)nc4c3Cl)cc2[nH]1 [Compound 319]	20 to 100 nM	20 to 100 nM	≥ 400 nM			
